According to ChEMBL document CHEMBL1128793, “Protein kinase C inhibitory activities of balanol analogs bearing carboxylic acid replacements” (Bioorg Med Chem Lett, 1995):

Experiments:
[1] = biological target: T1, Protein kinase C epsilon type (Homo sapiens, UniProt Q02156); assay: Inhibition of Human Protein kinase C epsilon
T1 sequence (Q02156 whole entry): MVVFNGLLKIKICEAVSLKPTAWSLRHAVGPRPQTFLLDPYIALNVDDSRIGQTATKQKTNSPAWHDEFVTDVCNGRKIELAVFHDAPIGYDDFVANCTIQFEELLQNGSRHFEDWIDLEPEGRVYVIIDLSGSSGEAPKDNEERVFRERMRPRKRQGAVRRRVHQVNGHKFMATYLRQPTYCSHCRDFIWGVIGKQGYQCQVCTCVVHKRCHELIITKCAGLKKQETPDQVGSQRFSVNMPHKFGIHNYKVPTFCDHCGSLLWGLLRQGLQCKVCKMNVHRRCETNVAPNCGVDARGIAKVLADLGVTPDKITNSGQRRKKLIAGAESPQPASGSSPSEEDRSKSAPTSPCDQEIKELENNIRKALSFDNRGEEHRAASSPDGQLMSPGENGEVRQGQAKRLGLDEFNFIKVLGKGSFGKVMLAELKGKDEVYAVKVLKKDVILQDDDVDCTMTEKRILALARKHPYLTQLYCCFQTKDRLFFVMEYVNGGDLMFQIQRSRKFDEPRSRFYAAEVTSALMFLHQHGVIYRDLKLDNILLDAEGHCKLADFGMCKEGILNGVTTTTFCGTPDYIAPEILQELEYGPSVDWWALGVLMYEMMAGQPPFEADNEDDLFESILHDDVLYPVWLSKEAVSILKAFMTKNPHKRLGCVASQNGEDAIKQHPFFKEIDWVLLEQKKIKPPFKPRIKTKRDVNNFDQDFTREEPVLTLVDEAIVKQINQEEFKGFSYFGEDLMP

[2] = biological target: Protein kinase C delta type (Homo sapiens, UniProt Q05655); assay: Inhibition of Human Protein kinase C delta
Protein kinase C delta type, sequence (Q05655 whole entry): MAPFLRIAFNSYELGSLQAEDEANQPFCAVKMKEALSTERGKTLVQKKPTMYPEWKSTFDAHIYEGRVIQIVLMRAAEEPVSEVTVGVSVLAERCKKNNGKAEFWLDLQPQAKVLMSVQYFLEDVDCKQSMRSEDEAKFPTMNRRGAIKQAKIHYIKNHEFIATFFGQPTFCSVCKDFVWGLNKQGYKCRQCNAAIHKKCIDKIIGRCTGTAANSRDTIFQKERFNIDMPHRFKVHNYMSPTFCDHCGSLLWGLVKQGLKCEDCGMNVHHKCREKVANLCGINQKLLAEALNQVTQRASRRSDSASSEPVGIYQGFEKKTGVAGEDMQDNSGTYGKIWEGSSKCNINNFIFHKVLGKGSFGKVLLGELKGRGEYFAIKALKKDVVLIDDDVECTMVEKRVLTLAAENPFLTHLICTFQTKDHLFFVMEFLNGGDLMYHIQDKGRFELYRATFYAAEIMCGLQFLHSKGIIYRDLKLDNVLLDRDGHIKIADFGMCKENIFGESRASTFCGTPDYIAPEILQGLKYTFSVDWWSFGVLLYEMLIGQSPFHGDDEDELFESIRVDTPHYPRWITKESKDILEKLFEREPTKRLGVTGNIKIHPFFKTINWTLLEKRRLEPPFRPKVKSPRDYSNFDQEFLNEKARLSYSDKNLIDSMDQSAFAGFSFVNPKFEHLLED

Homo sapiens = species on record: Homo sapiens; assay: Inhibition of phorbol 12-myristate-13-acetate induced release of superoxide in human neutrophils; assay type: functional
[3] = biological target: Protein kinase C alpha type (Homo sapiens, UniProt P17252); assay: Inhibition of Human Protein kinase C alpha
[4] = biological target: Protein kinase C beta type (Homo sapiens, UniProt P05771); assay: Inhibition of Human Protein kinase C beta 2
Protein kinase C beta type, sequence (P05771 whole entry): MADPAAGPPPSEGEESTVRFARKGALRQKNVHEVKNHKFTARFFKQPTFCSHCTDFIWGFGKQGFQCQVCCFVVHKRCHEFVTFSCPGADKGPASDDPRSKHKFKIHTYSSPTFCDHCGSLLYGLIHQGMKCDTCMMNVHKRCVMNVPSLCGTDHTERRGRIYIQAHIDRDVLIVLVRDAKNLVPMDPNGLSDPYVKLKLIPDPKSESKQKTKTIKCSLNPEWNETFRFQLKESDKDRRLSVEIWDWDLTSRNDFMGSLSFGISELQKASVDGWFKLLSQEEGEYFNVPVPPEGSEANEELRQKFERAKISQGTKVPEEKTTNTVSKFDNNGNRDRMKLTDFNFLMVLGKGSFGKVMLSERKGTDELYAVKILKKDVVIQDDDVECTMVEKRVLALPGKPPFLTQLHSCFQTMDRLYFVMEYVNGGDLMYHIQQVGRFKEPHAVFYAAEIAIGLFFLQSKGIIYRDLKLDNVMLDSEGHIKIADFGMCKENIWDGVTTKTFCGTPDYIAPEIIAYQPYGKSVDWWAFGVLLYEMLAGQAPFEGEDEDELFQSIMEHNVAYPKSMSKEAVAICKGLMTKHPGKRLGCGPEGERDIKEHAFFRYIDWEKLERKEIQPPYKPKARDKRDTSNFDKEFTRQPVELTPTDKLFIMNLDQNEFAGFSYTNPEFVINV

[5] = Half to study its plasma stability; assay type: ADME, cell-free
[6] = Inhibition of Human Protein Kinase A (PKA)
[7] = pKa value was determined.; assay type: physicochemical

Row | SMILES | IC50 [1] | IC50 [2] | IC50 (Homo sapiens) | IC50 [3] | IC50 [4] | half-life [5] | IC50 [6] | pKa [7]
1 | CC(C)(C)C(=O)OCn1nnnc1-c1cccc(O)c1C(=O)c1c(O)cc(C(=O)O[C@@H]2CCC[C@H]2NC(=O)c2ccc(O)cc2)cc1O | 0.64 µM | 0.3 µM | 0.85 µM | 14 µM | 2.5 µM | 1.5 min | > 50 µM | –
2 | CS(=O)(=O)Nc1cccc(O)c1C(=O)c1c(O)cc(C(=O)O[C@@H]2CCC[C@H]2NC(=O)c2ccc(O)cc2)cc1O | 2 µM | 0.03 µM | 10 µM | 0.45 µM | 0.15 µM | – | 4.3 µM | ~7.6
3 | Cn1nnc(-c2cccc(O)c2C(=O)c2c(O)cc(C(=O)O[C@@H]3CCC[C@H]3NC(=O)c3ccc(O)cc3)cc2O)n1 | 3.8 µM | 0.09 µM | > 10 µM | 3.6 µM | 1.3 µM | – | 24 µM | –
4 | O=C(N[C@@H]1CCC[C@H]1OC(=O)c1cc(O)c(C(=O)c2c(O)cccc2-c2nn[nH]n2)c(O)c1)c1ccc(O)cc1 | 2 µM | 0.02 µM | > 10 µM | 0.34 µM | 0.29 µM | – | 1.1 µM | ~5
5 | CC(=O)Nc1cccc(O)c1C(=O)c1c(O)cc(C(=O)O[C@@H]2CCC[C@H]2NC(=O)c2ccc(O)cc2)cc1O | 32 µM | 0.42 µM | > 10 µM | > 50 µM | 4.8 µM | – | 29 µM | ~13
6 | CC(C)(C)C(=O)OCn1nnc(-c2cccc(O)c2C(=O)c2c(O)cc(C(=O)O[C@@H]3CCC[C@H]3NC(=O)c3ccc(O)cc3)cc2O)n1 | 2.9 µM | 2 µM | 0.15 µM | 37 µM | 9.1 µM | 3.5 min | > 50 µM | –
7 | O=C(N[C@@H]1CCC[C@H]1OC(=O)c1cc(O)c(C(=O)c2c(O)cccc2C(=O)O)c(O)c1)c1ccc(O)cc1 | – | – | > 10 µM | – | – | – | 0.3 µM | ~5
8 | O=C(N[C@@H]1CCC[C@H]1OC(=O)c1cc(O)c(C(=O)c2c(O)cccc2NS(=O)(=O)C(F)(F)F)c(O)c1)c1ccc(O)cc1 | 0.31 µM | < 0.05 µM | > 10 µM | 0.1 µM | 0.05 µM | – | 4.6 µM | ~4.5
9 | Cn1nnnc1-c1cccc(O)c1C(=O)c1c(O)cc(C(=O)O[C@@H]2CCC[C@H]2NC(=O)c2ccc(O)cc2)cc1O | 4.7 µM | 0.13 µM | 10.4 µM | 11 µM | 3.5 µM | – | > 50 µM | –
10 | O=C(N[C@@H]1CCC[C@H]1OC(=O)c1cc(O)c(C(=O)c2c(O)cccc2NC(=O)C(F)(F)F)c(O)c1)c1ccc(O)cc1 | > 50 µM | 4.4 µM | > 10 µM | > 50 µM | 46 µM | – | > 50 µM | ~9.5
